Measurements: patent US20190015379A1, “USE OF DIANHYDROGALACTITOL AND ANALOGS AND DERIVATIVES THEREOF, TOGETHER WITH RADIATION, TO TREAT NON-SMALL-CELL CARCINOMA OF THE LUNG AND GLIOBLASTOMA MULTIFORME AND SUPPRESS PROLIFERATION OF CANCER STEM CELLS” (DelMar Pharmaceuticals, Inc., priority 2014, published 2019)
Entries after “also recorded” stand apart in the source; their conditions may differ.

What was measured:
[1] = test system: cancer stem cells (BT74, GBM4 and GBM8); conditions: neurosphere growth assays; Hu et al. 2012; cited from earlier work
[2] = test system: progressive secondary brain tumor; assay: Phase I/II dose-escalation study, tumor response in secondary brain tumor patients; assay type: in vivo, human; conditions: n = 6
Source text: (§1) The methodology of the study reported in this Example is as follows: An open-label, single arm Phase I/II dose-escalation study designed to evaluate the safety, tolerability, pharmacokinetics and anti-tumor activity of dianhydrogalactitol in patients with: (i) histologically confirmed initial diagnosis of primary WHO Grade IV malignant GBM, now recurrent, or (ii) progressive secondary brain tumor, having failed standard brain radiotherapy, and with brain tumor progression after at least one line of systemic therapy. The study utilizes a 3+3 dose escalation design, until the MTD or the maximum specified dose is reached. Patients receive dianhydrogalactitol intravenously at the assigned dose on days 1, 2, and 3 of each 21-day treatment cycle. In Phase II, additional patients will be treated at the MTD (or other selected optimum Phase II dose) to measure tumor responses. All patients enrolled have previously been treated with surgery and/or radiation, if appropriate, and must have failed both bevacizumab and TMZ, unless contraindicated. For these studies, the following is a summary of the inclusion criteria: (1) Patients must be greater than or equal to 18 years old. […]
Enrollment and evaluation of Cohort 7 (40 mg/m^2) is ongoing. […] Tumor volume is assessed during the study based on RANO criteria. […]

[3] = Stability of reconstituted dianhydrogalactitol stock solution; assay type: physicochemical; conditions: 8 mg/mL in 0.9% sodium chloride for injection
Protocol: Dianhydrogalactitol (DAG) was provided as a lyophilized product at 40 mg of DAG per vial. For administration, 5 mL of 0.9% sodium chloride for injection, USP (saline) was added to yield a DAG solution with a concentration of 8 mg/mL. This stock solution was stable for 4 hours at room temperature or for 24 hours at 4° C. Further dilutions were made to prepare solutions of injection of 0.9 mg/mL (for administration of 0.18 mg/mouse in 0.2 mL; diluted from the 8 mg/mL reconstituted solution); of 0.45 mg/mL (for administration of 0.09 mg/mouse in 0.2 mL; a 1 to 2 dilution of the 0.9 mg/mL solution); and of 0.225 mg/mL (for administration of 0.045 mg/mouse in 0.2 mL; a 1 to 2 dilution of the 0.45 mg/mL solution).

[4] = Phase I/II dose-escalation study, plasma pharmacokinetics; assay type: in vivo, human
Source text: as §1

[5] = test system: normal human neural stem cells; conditions: neurosphere growth assays; Hu et al. 2012; cited from earlier work
[6] = test system: CSC and non-CSC cultures derived from primary GBM tissue; assay: Cell viability (CellTiter-Glo) in primary GBM cultures with or without radiation; assay type: cell-based, human
Protocol: “GAPDH” refers to glyceraldehyde-3-phosphate dehydrogenase as a control. For the cell cultures, CSCs were cultured in NSA media supplemented with B27, EGF and bFGF. Non-CSCs were grown in DMEM:F12 with 10% FBS. MGMT methylation and protein expression analysis of each culture was characterized. TMZ or VAL-083 was added to the cultures in the indicated concentrations. Depending on the experiment, cells were also irradiated with 2 Gy in a Cesium irradiator. For assays, cell cycle analysis was performed with Propidium Iodide staining and FACs analysis. Cell viability was analyzed with CellTiter-Glo™ and read on a Promega GloMax™. […] In FIG. 4, “1° GBM” refers to primary glioblastoma multiforme cell cultures.
In FIG. 17, TMZ (50 μM) or dianhydrogalactitol (“VAL-083”) (5 μM) were added to primary CSC cultures at various doses with or without irradiation (2 Gy). Shown are cell cycle profile analysis at day 4 post treatment (A,C) and cell viability analysis at day 6 post treatment (B,D) for the paired CSC (A,B) and non-CSC (C,D) 7996 culture.
In FIG. 18, dianhydrogalactitol (“VAL-083”) was added to primary CSC cultures at various doses (1, 2.5 and 5 μM) with or without irradiation (2 Gy). Shown are cell cycle profile analysis at day 4 post treatment (A,C) and cell viability analysis at day 6 post treatment (B,D) for two different patient-derived CSC cultures, 7996 (A,B) and 8565 (C,D).

[7] = test system: GBM cell lines SF188, U251, and T98G; assay: Tumor growth inhibition in GBM cell lines (FIG. 29); assay type: cell-based, human; conditions: MGMT negative SF188 and U251, MGMT positive T98G

For dianhydrogalactitol, the “inhibition of growth of cancer stem cells” value [1] is listed as 80-100%, the “Tumor Response, Overall” value ([2]; secondary brain tumors (breast adenocarcinoma 2, small-cell lung carcinoma 3, melanoma 1)) is listed as “Overall = 17%” and the “Tumor Response, SD (number of patients)” value ([2]; secondary brain tumors) is listed as “SD (1)”. The “stability of stock solution” value ([3]; 4° C.) was 24 h, the “stability of stock solution” value ([3]; room temperature) was 4 h and the “pharmacokinetics, dose dependence” value ([4]; dose cohorts of the current trial) was “linear”. The plasma half-life ([4]; i.v., patients) was 1 to 2 h, the “effect on normal human neural stem cells” value [5] was “minimal effect” and the “effect in combination with radiation” value ([6]; 1, 2.5 and 5 μM with or without irradiation (2 Gy), CSC cultures 7996 and 8565) was “acts as a radiosensitizer in primary CSC cultures; also recorded: potential additive effect of dianhydrogalactitol with radiation”. For the same substance, the “reduction in cell viability with dianhydrogalactitol plus radiation” value ([6]; 7996 GNS (CSC), low concentration such as 1 μM, radiation) was 20%, the “cell viability in TMZ-resistant cultures” value ([6]; VAL-083 5 μM, paired CSC and non-CSC 7996 culture, viability day 6 post treatment) was “decreases cell viability in TMZ-resistant cultures” and the “inhibition of tumor growth compared with TMZ” value [7] was “better than TMZ for inhibiting tumor growth”.
